Results published in PubChem BioAssay AID1963963 (Molecular Pharmacology Branch, DTP, NCI, 2024).
pIC50: −log10 of the molar value.

System: 958667-338-R-J2-PDC tumor spheroids viability
Assay: Anticancer human tumor 958667-338-R-J2-PDC patient-derived colon adenocarcinoma cell line growth inhibition [PI3K]
Conditions: spheroids with HUVEC and MSC; for pIC50: curve of first compound; for viability, T/C: stronger effect = lower value
How it was run: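 Tumor cells grown as multi-cell spheroids with HUVEC endothelial cells and MSC fibroblast-like stroma were treated with targeted agents combined with inavolisib, alpelisib, duvelisib or copanlisib. Doses fell in half-log steps from near clinical Cmax, else from 10 microM. Viability was measured.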

[1] = second compound 0.0316 µM, first compound 0.0316 µM
[2] = second compound 0.0316 µM, first compound 0.1 µM
[3] = second compound 0.1 µM, first compound 0.0316 µM
[4] = second compound 0.1 µM, first compound 0.1 µM
[5] = second compound 0.316 µM, first compound 0.0316 µM
[6] = second compound 0.316 µM, first compound 0.1 µM
[7] = second compound 1 µM, first compound 0.0316 µM
[8] = second compound 1 µM, first compound 0.1 µM
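Also: spheroids exposed to compounds for seven days before readout.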

SMILES: CC(C)n1nc(-c2ccc3oc(N)nc3c2)c2c(N)ncnc21 + CC(Nc1ccc2c(c1)OCCn1cc(N3C(=O)OCC3C(F)F)nc1-2)C(N)=O
- pIC50 (second compound 0.00316 µM): 7.19
- pIC50 (second compound 0.01 µM): 7.19
- pIC50 (second compound 0.0316 µM): 7.36
- pIC50 (second compound 0.1 µM): 7.28
- pIC50 (second compound 0.316 µM): 7.54
- pIC50 (second compound 1 µM): 8.57
- viability, T/C (second compound 0.00316 µM, first compound 0.000316 µM): 103%
- viability, T/C (second compound 0.00316 µM, first compound 0.001 µM): 120%
- viability, T/C (second compound 0.00316 µM, first compound 0.00316 µM): 92.5%
- viability, T/C (second compound 0.00316 µM, first compound 0.01 µM): 91.7%
- viability, T/C (second compound 0.00316 µM, first compound 0.0316 µM): 80.8%
- viability, T/C (second compound 0.00316 µM, first compound 0.1 µM): 33.3%
- viability, T/C (second compound 0.01 µM, first compound 0.000316 µM): 109%
- viability, T/C (second compound 0.01 µM, first compound 0.001 µM): 109%
- viability, T/C (second compound 0.01 µM, first compound 0.00316 µM): 95.9%
- viability, T/C (second compound 0.01 µM, first compound 0.01 µM): 94.7%
- viability, T/C (second compound 0.01 µM, first compound 0.0316 µM): 71%
- viability, T/C (second compound 0.01 µM, first compound 0.1 µM): 37.1%
- viability, T/C (second compound 0.0316 µM, first compound 0.000316 µM): 99.5%
- viability, T/C (second compound 0.0316 µM, first compound 0.001 µM): 74.3%
- viability, T/C (second compound 0.0316 µM, first compound 0.00316 µM): 81.5%
- viability, T/C (second compound 0.0316 µM, first compound 0.01 µM): 65%
- viability, T/C [1]: 64.5%
- viability, T/C [2]: 32.9%
- viability, T/C (second compound 0.1 µM, first compound 0.000316 µM): 79.3%
- viability, T/C (second compound 0.1 µM, first compound 0.001 µM): 86.9%
- viability, T/C (second compound 0.1 µM, first compound 0.00316 µM): 85.9%
- viability, T/C (second compound 0.1 µM, first compound 0.01 µM): 75.3%
- viability, T/C [3]: 68%
- viability, T/C [4]: 28.7%
- viability, T/C (second compound 0.316 µM, first compound 0.000316 µM): 58.2%
- viability, T/C (second compound 0.316 µM, first compound 0.001 µM): 59.8%
- viability, T/C (second compound 0.316 µM, first compound 0.00316 µM): 66.2%
- viability, T/C (second compound 0.316 µM, first compound 0.01 µM): 65.1%
- viability, T/C [5]: 48.9%
- viability, T/C [6]: 21.8%
- viability, T/C (second compound 1 µM, first compound 0.000316 µM): 65.7%
- viability, T/C (second compound 1 µM, first compound 0.001 µM): 53.8%
- viability, T/C (second compound 1 µM, first compound 0.00316 µM): 45.6%
- viability, T/C (second compound 1 µM, first compound 0.01 µM): 44.3%
- viability, T/C [7]: 35.4%
- viability, T/C [8]: 23.5%

SMILES: CC(Cn1ccc(-c2ccc(C#N)c(Cl)c2)n1)NC(=O)c1cc(C(C)O)[nH]n1 (centres undefined) + Cc1nc(NC(=O)N2CCCC2C(N)=O)sc1-c1ccnc(C(C)(C)C(F)(F)F)c1
- pIC50 (second compound 0.0316 µM): < 5.00
- pIC50 (second compound 0.1 µM): < 5.00
- pIC50 (second compound 0.316 µM): < 5.00
- pIC50 (second compound 1 µM): < 5.00
- pIC50 (second compound 3.16 µM): < 5.00
- pIC50 (second compound 10 µM): < 5.00
- viability, T/C [1]: 78.8%
- viability, T/C [2]: 98.7%
- viability, T/C (second compound 0.0316 µM, first compound 0.316 µM): 84.2%
- viability, T/C (second compound 0.0316 µM, first compound 1 µM): 114%
- viability, T/C (second compound 0.0316 µM, first compound 3.16 µM): 102%
- viability, T/C (second compound 0.0316 µM, first compound 10 µM): 107%
- viability, T/C [3]: 86.8%
- viability, T/C [4]: 92.8%
- viability, T/C (second compound 0.1 µM, first compound 0.316 µM): 97.9%
- viability, T/C (second compound 0.1 µM, first compound 1 µM): 81.9%
- viability, T/C (second compound 0.1 µM, first compound 3.16 µM): 91.9%
- viability, T/C (second compound 0.1 µM, first compound 10 µM): 74.8%
- viability, T/C [5]: 106%
- viability, T/C [6]: 87.8%
- viability, T/C (second compound 0.316 µM, first compound 0.316 µM): 90.8%
- viability, T/C (second compound 0.316 µM, first compound 1 µM): 94.5%
- viability, T/C (second compound 0.316 µM, first compound 3.16 µM): 86.3%
- viability, T/C (second compound 0.316 µM, first compound 10 µM): 92.3%
- viability, T/C [7]: 62.9%
- viability, T/C [8]: 65.9%
- viability, T/C (second compound 1 µM, first compound 0.316 µM): 95.9%
- viability, T/C (second compound 1 µM, first compound 1 µM): 72.8%
- viability, T/C (second compound 1 µM, first compound 3.16 µM): 92.7%
- viability, T/C (second compound 1 µM, first compound 10 µM): 80%
- viability, T/C (second compound 3.16 µM, first compound 0.0316 µM): 76.3%
- viability, T/C (second compound 3.16 µM, first compound 0.1 µM): 55%
- viability, T/C (second compound 3.16 µM, first compound 0.316 µM): 62.8%
- viability, T/C (second compound 3.16 µM, first compound 1 µM): 68.4%
- viability, T/C (second compound 3.16 µM, first compound 3.16 µM): 85.4%
- viability, T/C (second compound 3.16 µM, first compound 10 µM): 72.6%
- viability, T/C (second compound 10 µM, first compound 0.0316 µM): 52.5%
- viability, T/C (second compound 10 µM, first compound 0.1 µM): 59.7%
- viability, T/C (second compound 10 µM, first compound 0.316 µM): 47.7%
- viability, T/C (second compound 10 µM, first compound 1 µM): 59.7%
- viability, T/C (second compound 10 µM, first compound 3.16 µM): 72%
- viability, T/C (second compound 10 µM, first compound 10 µM): 50.5%
